Experimental findings from patent publication US12616672B2, “Methods for assessing risk of cardiovascular disease and methods and compounds for use in treating or preventing cardiovascular disease” (Queen Mary University of London, priority 2017, dated 2026) are described below.

“And” between values parts separate entries of the source, which are not always exact repeats. Equal entries are not always repeated.

The subject of this assay is peripheral blood from healthy volunteers. As to the kind of experiment: Human whole blood incubations (ACh, norepinephrine, cortisol), then lipid mediator profiling of plasma. The note with it: for production of n-3 DPA derived mediators in peripheral blood: norepinephrine 0.1-10 μM, cortisol 1-10 μM, healthy volunteers. Type of assay: cell-based. The protocol:
Plasma was obtained from peripheral blood of healthy volunteers and patients following centrifugation at 1500×g for 10 min at room temperature. Descending aortas were weighed, placed in ice-cold methanol and homogenized using a glass dounce.
All samples for LC-MS-MS-based profiling were extracted using solid-phase extraction columns as described in Dalli et al. 2013 and Rathod et al. 2017, the contents of which are incorporated herein by reference.
Prior to sample extraction, deuterated internal standards, representing each region in the chromatographic analysis (500 pg each) were added to facilitate quantification in 4V of cold methanol.
Samples were kept at −20° C. for a minimum of 45 min to allow protein precipitation.
Supernatants were subjected to solid phase extraction, methyl formate fraction collected, brought to dryness and suspended in phase (methanol/water, 1:1, vol/vol) for injection on a Shimadzu LC-20AD HPLC and a Shimadzu SIL-20AC autoinjector, paired with a triple quadrupole mass spectrometer with or without a linear ion trap.
An Agilent Poroshell 120 EC-C18 column (100 mm×4.6 mm×2.7 μm) was kept at 50° C. and mediators eluted using a mobile phase consisting of methanol-water-acetic acid of 20:80:0.01 (vol/vol/vol) that was ramped to 50:50:0.01 (vol/vol/vol) over 0.5 min and then to 80:20:0.01 (vol/vol/vol) from 2 min to 11 min, maintained till 14.5 min and then rapidly ramped to 98:2:0.01 (vol/vol/vol) for the next 0.1 min. This was subsequently maintained at 98:2:0.01 (vol/vol/vol) for 5.4 min, and the flow rate was maintained at 0.5 ml/min. Mass spectrometer was operated using a multiple reaction monitoring method as in Walker M E et al. 13-Series resolvins mediate the leukocyte-platelet actions of atorvastatin and pravastatin in inflammatory arthritis. FASEB J. 2017 August; 31(8):3636-3648, the contents of which are incorporated herein by reference.
Each LM was identified using established criteria including matching retention time to synthetic and authentic materials and at least six diagnostic ions (Walker M E et al. 2017. ibid.)
Calibration curves were obtained for each using synthetic compound mixtures at 0.78, 1.56, 3.12, 6.25, 12.5, 25, 50, 100, and 200 pg that gave linear calibration curves with an r^2 values of 0.98-0.99. […]

Setting [1] is: whole blood with ACh 0.1 μM, 45 min, 37° C., n = 9.
[2] abbreviates: whole blood with ACh 0.1 μM, 45 min, n = 9.
Where [3] appears, read: whole blood with Cortisol 1 μM, 45 min, n = 5.
Setting [4] is: whole blood with Cortisol 10 μM, 45 min, n = 5.

Take `CC(=O)OCC[N+](C)(C)C` [ACh, acetylcholine]: where the note is “whole blood incubated with ACh”, the “increase in RvD2n-3 DPA compared with blood incubated with vehicle alone” value is reported as roughly 160%. Under setting [1], the 7-HDPA concentration was 44.9 pg/mL and 44.9 ± 10.7 pg/mL; the 13-HDPA concentration is 1.9 pg/mL and 1.9 ± 0.6 pg/mL; the 14-HDPA concentration is 137.2 pg/mL and 137.2 ± 25.8 pg/mL; the 17-HDPA concentration is 58.9 pg/mL and 58.9 ± 13.2 pg/mL. Also, under setting [1], the DPA concentration is 3873.1 pg/mL and 3873.1 ± 706.3 pg/mL; the “MaR1n-3 DPA concentration” value worked out at 0.9 pg/mL; the “PD1n-3 DPA concentration” value is 0.5 pg/mL; the “RvD1n-3 DPA concentration” value turned out to be 4.9 pg/mL. Under setting [1], the “RvD2n-3 DPA concentration” value is recorded as 7.4 pg/mL, the “RvD5n-3 DPA concentration” value was 1.5 pg/mL, the RvT1 concentration was determined as 2.0 pg/mL and the RvT2 concentration stood at 1.6 pg/mL. Under setting [1], the RvT3 concentration came to 1.4 pg/mL and the RvT4 concentration turned out to be 1.0 pg/mL. Moreover, under setting [2], the 4HDHA concentration came to 19.9 ± 5.1 pg/mL, the 5HEPE concentration is 42.7 ± 11.3 pg/mL, the 5HETE concentration worked out at 69.9 ± 13.5 pg/mL and the 7HDHA concentration amounted to 8.6 ± 3.7 pg/mL. Under setting [2], this compound displayed a 12HEPE concentration of 402.4 ± 106.0 pg/mL, a 12HETE concentration of 5148.0 ± 1153.2 pg/mL, a 14HDHA concentration of 229.2 ± 41.2 pg/mL and a 15HEPE concentration of 31.3 ± 8.7 pg/mL. Moreover, under setting [2], the 15HETE concentration is listed as 336.4 ± 95.2 pg/mL, the 17HDHA concentration turned out to be 103.6 ± 25.9 pg/mL, the 18HEPE concentration worked out at 36.2 ± 12.2 pg/mL and the AA concentration was 24205.0 ± 4783.4 pg/mL. Under setting [2], this compound gave a DHA concentration of 28104.0 ± 10103.4 pg/mL and an EPA concentration of 5867.2 ± 713.2 pg/mL.

Consider `C[C@]12CCC(=O)C=C1CC[C@@H]1[C@@H]2[C@@H](O)C[C@@]2(C)[C@H]1CC[C@]2(O)C(=O)CO` [Cortisol, cortisol], for which the “production of n-3 DPA derived mediators in peripheral blood” value is “did not significantly augment”. Under setting [3], this compound registered a 7-HDPA concentration of 268.9 ± 83.5 pg/mL, a 13-HDPA concentration of 3.2 ± 0.7 pg/mL, a 14-HDPA concentration of 286.2 ± 91.0 pg/mL and a 17-HDPA concentration of 74.9 ± 18.2 pg/mL. Further, under setting [3], the DPA concentration is 24568.2 ± 6300.4 pg/mL, the “MaR1n-3 DPA concentration” value was 0.3 ± 0.2 pg/mL, the “PD1n-3 DPA concentration” value is recorded as 1.5 ± 1.1 pg/mL and the “RvD1n-3 DPA concentration” value came out at 1.9 ± 1.2 pg/mL. Further, under setting [3], the “RvD2n-3 DPA concentration” value amounted to 1.0 ± 0.9 pg/mL, the “RvD5n-3 DPA concentration” value is reported as 1.1 ± 0.6 pg/mL, the RvT1 concentration amounted to 0.5 ± 0.2 pg/mL and the RvT2 concentration is 0.1 ± 0.1 pg/mL. Under setting [3], this compound gave a RvT3 concentration of 1.6 ± 0.5 pg/mL and a RvT4 concentration of 2.7 ± 1.5 pg/mL. Also, under setting [4], the 7-HDPA concentration stood at 257.8 ± 109.6 pg/mL, the 13-HDPA concentration is given as 3.0 ± 0.6 pg/mL, the 14-HDPA concentration is given as 241.0 ± 40.9 pg/mL and the 17-HDPA concentration is recorded as 71.5 ± 17.5 pg/mL. Under setting [4], the DPA concentration worked out at 28823.5 ± 8019.0 pg/mL, the “MaR1n-3 DPA concentration” value came out at 0.2 ± 0.2 pg/mL, the “PD1n-3 DPA concentration” value is reported as 2.5 ± 1.5 pg/mL and the “RvD1n-3 DPA concentration” value stood at 1.7 ± 1.5 pg/mL. Further, under setting [4], the “RvD2n-3 DPA concentration” value is 1.2 ± 0.8 pg/mL, the “RvD5n-3 DPA concentration” value was found to be 1.7 ± 0.3 pg/mL, the RvT1 concentration is 0.6 ± 0.2 pg/mL and the RvT2 concentration worked out at 0.1 ± 0.0 pg/mL. Under setting [4], this compound showed a RvT3 concentration of 2.2 ± 1.5 pg/mL and a RvT4 concentration of 3.0 ± 1.8 pg/mL.

Consider `NC[C@H](O)c1ccc(O)c(O)c1` [norepinephrine], for which the “production of n-3 DPA derived mediators in peripheral blood” value is recorded as “did not significantly augment”.
